Laboratory results as given in US5856484A, “Sulfonylaminopyrimidine carboxylic acid derivatives having endothelin inhibiting activity” (Hoffmann-La Roche Inc., priority 1995, dated 1999).

How the values were obtained:
[1] = biological target: T1, human ETA receptors (Homo sapiens, UniProt P25101); experiment: Inhibition of endothelin binding to recombinant ETA receptors; conditions: 125I-endothelin, baculovirus-insect cell membranes, 20° C. 2 hours or 4° C. 24 hours
T1 construct: made in house; host or cells: baculovirus-infected insect cells
T1 sequence (P25101 21-427): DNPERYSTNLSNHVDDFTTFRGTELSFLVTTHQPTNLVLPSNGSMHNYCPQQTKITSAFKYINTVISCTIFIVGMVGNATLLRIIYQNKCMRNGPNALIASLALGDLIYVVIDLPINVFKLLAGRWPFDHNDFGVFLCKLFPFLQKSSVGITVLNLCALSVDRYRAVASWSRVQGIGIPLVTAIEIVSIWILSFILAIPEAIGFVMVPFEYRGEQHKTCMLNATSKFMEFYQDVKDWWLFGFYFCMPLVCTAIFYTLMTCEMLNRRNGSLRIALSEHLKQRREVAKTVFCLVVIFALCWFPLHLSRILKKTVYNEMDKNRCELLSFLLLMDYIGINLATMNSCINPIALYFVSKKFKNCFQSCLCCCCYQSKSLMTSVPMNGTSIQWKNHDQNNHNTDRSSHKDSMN
Protocol: I, Inhibition of endothelin binding to recombinant ETA receptors
A cDNA coding for human ETA receptors of human placenta was cloned (M. Adachi, Y.-Y. Yang, Y. Furuichi and C-Miyamoto, BBRC 180, 1265-1272) and expressed in the baculovirus-insect cell system. Baculovirus-infected insect cells from a 23 I fermentor are centrifuged off (3000×g, 15 minutes, 4° C.) 60 hours after the infection, re-suspended in Tris buffer (5 mM, pH 7.4, 1 mM MgCl2) and again centrifuged. After a further re-suspension and centrifugation the cells are suspended in 800 ml of the same buffer and freeze-dried at -120° C. The cells disintegrate when the suspension in this hypotonic buffer mixture is thawed. After a repeated freeze-drying/thawing cycle the suspension is homogenized and centrifuged (25000 x g, 15 minutes, 4° C.). After suspension in Tris buffer (75 mM, pH 7.4, 25 mM MgCl2, 250 mM sucrose) 1 ml aliquots (protein content about 3.5 mg/ml) are stored at -85° C.
(§1) For the binding assay, the freeze-dried membrane preparations are thawed and, after centrifugation at 20° C. and 25000 g for 10 minutes, re-suspended in assay buffer (50 mM Tris buffer pH 7.4, containing 25 mM MnCl2, 1 mM EDTA and 0.5% bovine serum albumin). 100 μl of this membrane suspension containing 5 μg of protein are incubated with 50 μl of ^125 I-endothelin (specific activity 2200 Ci/mMol) in assay buffer (25000 cpm, final concentration 20 μM) and 100 μl of assay buffer containing varying concentrations of test compound. The incubation is carried out at 20° C. for 2 hours or at 4° C. for 24 hours. The separation of free and membrane-bound radioligands is carried out by filtration over a glass fibre filter.
(§2) The inibitory activity on ETA and ETB receptors of compounds of formula I determined in these test procedures is given in Table 1 as the IC50, i.e. as the concentration [μM] which is required to inhibit 50% of the specific binding of ^125 I-endothelin.

[2] = biological target: T2, ETB receptors (Homo sapiens, UniProt P24530); experiment: Inhibition of endothelin binding to human placenta membranes (ETB receptors); conditions: 125I-endothelin, 20° C. 2 hours or 4° C. 24 hours
T2 construct: Human placenta is homogenized in 5 mM Tris buffer; from tissue; host or cells: human placenta membranes
T2 sequence (P24530 27-442): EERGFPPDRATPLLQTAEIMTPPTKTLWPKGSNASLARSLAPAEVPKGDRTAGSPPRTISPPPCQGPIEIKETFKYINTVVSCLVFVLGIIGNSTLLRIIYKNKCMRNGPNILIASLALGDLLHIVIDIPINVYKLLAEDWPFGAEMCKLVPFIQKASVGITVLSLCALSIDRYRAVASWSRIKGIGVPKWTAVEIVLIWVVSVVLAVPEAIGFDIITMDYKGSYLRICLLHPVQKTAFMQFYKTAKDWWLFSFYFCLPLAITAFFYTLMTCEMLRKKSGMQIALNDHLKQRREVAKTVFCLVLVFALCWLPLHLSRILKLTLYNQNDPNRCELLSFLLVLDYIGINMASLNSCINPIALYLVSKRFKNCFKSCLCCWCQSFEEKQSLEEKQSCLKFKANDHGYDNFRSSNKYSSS
Protocol: II. Inhibition of endothelin binding to human placenta membranes (ETB receptors) (see Life Sci 44:1429 (1989))
Human placenta is homogenized in 5 mM Tris buffer, pH 7.4, which contains 1 mM MgCl2 and 250 mM sucrose. The homogenizate is centrifuged at 4° C. and 3000 g for 15 minutes, the supernatant containing the plasma membrane fraction is centrifuged at 72000 g for 30 minutes and the precipitate is washed with 75 mM Tris buffer, pH 7.4, which contains 25 mM MgCl2. Thereafter, precipitate obtained from in each case 10 g of original tissue is suspended in 1 ml of 75 mM Tris buffer, pH 7.4, containing 25 mM MgCl2 and 250 mM sucrose and freeze-dried at -20° C. in 1 ml aliquots.
as §1, with “Tris buffer,” for “Tris buffer”, “containing 35” for “containing 5”, “^125 I-endotheline” for “^125 I-endothelin”, “2200 (Ci/mMol)” for “2200 Ci/mMol)”, “20 pM)” for “20 μM)”
as §2

| IC50 [1] [µM] | IC50 [2] [µM] | Compound |
| --- | --- | --- |
| 1.83 | – | COc1ccc(Cl)c(Oc2c(NS(=O)(=O)c3ccc(C(C)(C)C)cc3)nc(C(=O)O)nc2OCCO)c1 [Example 2, 4-(4-tert.Butyl-phenylsulphonylamino)-5-(2-chloro-5-methoxy-phenoxy)-6-(2-hydroxy-ethoxy)-pyrimidine-2-carboxylic acid] |
| 16.4 | 0.29 | COc1ccccc1Oc1c(NS(=O)(=O)c2ccc(C(C)(C)C)cc2)nc(C(=O)O)nc1OCCO [Example 5, 6-(4-tert.butyl-phenylsulphonylamino)-4-(2-hydroxy-ethoxy)-5-(2-methoxy-phenoxy)-pyrimidine-2-carboxylic acid] |
| 73 | 0.08 | COc1cccc(Oc2c(NS(=O)(=O)c3ccc(C(C)(C)C)cc3)nc(C(=O)O)nc2OCCO)c1 [Example 1, 6-(4-tert.butyl-phenylsulphonylamino)-4-(2-hydroxy-ethoxy)-5-(3-methoxy-phenoxy)-pyrimidine-2-carboxylic acid] |

Second part, the molecule before the results:

| Compound | IC50 [1] [µM] | IC50 [2] [µM] |
| --- | --- | --- |
| COc1cccc(Oc2c(NS(=O)(=O)c3ccc(C(C)(C)C)cc3)nc(C(=O)Nc3ccccc3)nc2OCCO)c1 [Example 6, 6-(4-tert.butyl-phenylsulphonylamino)-4-(2-hydroxy-ethoxy)-5-(3-methoxy-phenoxy)-pyrimidine-2-carboxylic acid phenylamide] | 38 | – |
| COc1ccc(Cl)c(Oc2c(NS(=O)(=O)c3ccc(C(C)(C)C)cc3)nc(C(=O)Nc3ccccc3)nc2OCCO)c1 [Example 9, 4-(4-tert.Butyl-phenylsulphonylamino)-5-(2-chloro-5-methoxy-phenoxy)-6-(2-hydroxy-ethoxy)-pyrimidine-2-carboxylic acid phenylamide] | 21.4 | 0.086 |
| COc1ccc(S(=O)(=O)Nc2nc(C(=O)Nc3ccccc3)nc(OCCO)c2Oc2cccc(OC)c2)cc1 [Example 7, 4-(2-Hydroxy-ethoxy)-5-(3-methoxy-phenoxy)-6-(4-methoxy-phenylsulphonylamino)-pyrimidine-2-carboxylic acid phenylamide] | 18.2 | 0.3 |
| COc1ccccc1Oc1c(NS(=O)(=O)c2ccc(C(C)(C)C)cc2)nc(C(=O)Nc2ccccc2)nc1OCCO [Example 8, 6-(4-tert.Butyl-phenylsulphonylamino)-5-(2-methoxy-phenoxy)-4-(2-hydroxy-ethoxy)-pyrimidine-2-carboxylic acid phenylamide] | 13 | 0.06 |
| COc1cccc(Oc2c(NS(=O)(=O)c3ccc(C(C)(C)C)cc3)nc(C(=O)Nc3nnn[nH]3)nc2OCCO)c1 [Example 10, 4-(4-tert.Butyl-phenylsulphonylamino)-6-(2-hydroxy-ethoxy)-5-(3-methoxy-phenoxy)-pyrimidine-2-carboxylic acid (1 H-tetrazol-5-yl)-amide] | 13 | 0.14 |
